What was measured:
[1] = target: T1, Sodium channel protein type 2 subunit alpha (Homo sapiens, UniProt Q99250); experiment: (§1) Blockade of synaptosomal sodium channels, inhibition of [14C]guanidinium ion flux into CHO cells expressing Type II sodium channel; assay type: functional, cell-based
[2] = Inhibition of 45 [Ca2+] flux into rat brain synaptosomes depolarized by elevated potassium concentrations; assay type: functional, subcellular
[3] = target: Sodium channel alpha subunits; brain (Types I, II, III) (Rattus norvegicus) (UniProt P04775+P04774+P08104); details: at 3 µM
Description: Inhibition of veratridine-induced glutamate release, blockade of rat brain synaptosome voltage-gated sodium channels at 3 uM

Rattus norvegicus = organism: Rattus norvegicus; experiment: Compound was evaluated for the inhibition of K+ -evoked glutamate release through block of voltage-gated [Ca2+] -channels, in the rat brain synaptosomal preparations; assay type: functional, organism-based
[4] = target: T1, Sodium channel protein type 2 subunit alpha; experiment: as §1

T1 sequence (Q99250 whole entry): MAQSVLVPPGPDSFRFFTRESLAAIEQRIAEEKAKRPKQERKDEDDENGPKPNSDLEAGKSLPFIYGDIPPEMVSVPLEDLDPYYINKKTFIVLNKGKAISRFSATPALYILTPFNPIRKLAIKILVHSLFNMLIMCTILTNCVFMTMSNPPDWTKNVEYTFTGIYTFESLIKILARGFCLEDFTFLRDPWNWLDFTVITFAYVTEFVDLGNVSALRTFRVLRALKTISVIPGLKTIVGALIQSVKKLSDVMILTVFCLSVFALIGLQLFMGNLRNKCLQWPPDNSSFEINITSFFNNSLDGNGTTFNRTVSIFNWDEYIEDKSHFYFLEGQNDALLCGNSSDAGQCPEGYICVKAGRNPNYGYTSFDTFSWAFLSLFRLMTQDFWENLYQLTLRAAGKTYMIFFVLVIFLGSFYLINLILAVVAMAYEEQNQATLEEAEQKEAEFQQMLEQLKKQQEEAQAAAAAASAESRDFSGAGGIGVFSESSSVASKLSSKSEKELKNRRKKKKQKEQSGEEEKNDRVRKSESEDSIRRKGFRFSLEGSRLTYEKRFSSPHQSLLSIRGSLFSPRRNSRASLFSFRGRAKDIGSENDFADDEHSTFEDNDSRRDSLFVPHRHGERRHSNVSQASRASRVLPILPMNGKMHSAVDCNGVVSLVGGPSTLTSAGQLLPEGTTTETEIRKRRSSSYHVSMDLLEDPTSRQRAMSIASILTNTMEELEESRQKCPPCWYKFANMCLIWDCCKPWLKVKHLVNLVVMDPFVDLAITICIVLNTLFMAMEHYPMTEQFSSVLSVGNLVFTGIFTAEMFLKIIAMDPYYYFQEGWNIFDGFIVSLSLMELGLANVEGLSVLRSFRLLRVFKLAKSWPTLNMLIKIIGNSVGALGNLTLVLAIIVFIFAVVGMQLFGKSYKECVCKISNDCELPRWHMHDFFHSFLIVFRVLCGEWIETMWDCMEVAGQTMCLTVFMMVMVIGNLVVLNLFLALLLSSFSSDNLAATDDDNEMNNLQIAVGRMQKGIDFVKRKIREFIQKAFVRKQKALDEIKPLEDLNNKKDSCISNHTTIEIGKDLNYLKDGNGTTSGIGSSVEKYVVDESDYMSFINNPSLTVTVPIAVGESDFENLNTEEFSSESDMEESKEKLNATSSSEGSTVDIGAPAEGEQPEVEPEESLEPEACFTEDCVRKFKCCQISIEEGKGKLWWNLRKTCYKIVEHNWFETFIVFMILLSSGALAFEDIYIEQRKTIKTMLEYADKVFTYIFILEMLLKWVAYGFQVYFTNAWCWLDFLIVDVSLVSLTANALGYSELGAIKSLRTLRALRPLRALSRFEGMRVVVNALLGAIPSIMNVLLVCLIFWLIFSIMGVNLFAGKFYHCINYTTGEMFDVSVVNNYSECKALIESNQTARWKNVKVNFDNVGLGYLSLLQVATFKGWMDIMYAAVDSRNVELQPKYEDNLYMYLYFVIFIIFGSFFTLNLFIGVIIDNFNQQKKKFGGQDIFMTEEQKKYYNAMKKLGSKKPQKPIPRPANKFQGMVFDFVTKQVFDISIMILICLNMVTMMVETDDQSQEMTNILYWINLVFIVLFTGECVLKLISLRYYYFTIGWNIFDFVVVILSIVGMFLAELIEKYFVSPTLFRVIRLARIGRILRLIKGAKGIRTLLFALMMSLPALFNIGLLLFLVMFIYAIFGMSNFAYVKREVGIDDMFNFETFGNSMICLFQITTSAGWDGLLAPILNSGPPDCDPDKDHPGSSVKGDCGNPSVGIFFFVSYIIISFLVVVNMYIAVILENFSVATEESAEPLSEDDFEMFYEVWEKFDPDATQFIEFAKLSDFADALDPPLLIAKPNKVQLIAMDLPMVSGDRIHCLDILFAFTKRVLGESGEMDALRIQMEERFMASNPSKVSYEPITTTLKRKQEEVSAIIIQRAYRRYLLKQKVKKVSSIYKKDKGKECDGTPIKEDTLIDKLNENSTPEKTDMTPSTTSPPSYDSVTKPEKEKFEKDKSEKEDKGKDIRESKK

Row | IC50 [1] [µM] | IC50 [2] [µM] | Block [3] [%] | IC50 (Rattus norvegicus) [µM] | SMILES | IC50 [4] [µM]
1 | 2.2 | > 30 | 49 |  | Nc1nc2ccc(OC(F)(F)F)cc2s1 [RILUZOLE] | 
2 | 2.03 | 1.13 |  | 0.8 | N=C(Nc1ccc2c3c(cccc13)CC2)Nc1ccc2c3c(cccc13)CC2 | 
3 |  |  |  |  | CN1CCN(c2ncc(-c3cc(Cl)cc(Cl)c3Cl)c(N)n2)CC1 [SIPATRIGINE] | 2.55
4 | 1.31 | 2.24 | 87 | 1 | COc1ccc(/N=C(\N)Nc2ccc3c4c(cccc24)CC3)c2ccccc12 | 
